Data on seven molecules can be found in ChEMBL document CHEMBL3132769, “Fragment growing to retain or alter the selectivity of anchored kinase hinge-binding fragments” (Medchemcomm, 2014).

SMILES strings stand for the structures.

Experiment [1] has as its target Tyrosine-protein kinase Lyn (Homo sapiens) (UniProt P07948). The experiment in a line: Inhibition of human full length LYN expressed in baculovirus assessed as substrate phosphorylation using fluorescence-labelled peptides as substrate at 8 uM after 90 mins by microfluidic peptide phosphorylation assay.
Experiment [2] deals with Protein kinase C beta type (Homo sapiens) (UniProt P05771). The settings on record: 0.1 uM.
Protein kinase C beta type (Homo sapiens), sequence (P05771 2-671 limits assumed): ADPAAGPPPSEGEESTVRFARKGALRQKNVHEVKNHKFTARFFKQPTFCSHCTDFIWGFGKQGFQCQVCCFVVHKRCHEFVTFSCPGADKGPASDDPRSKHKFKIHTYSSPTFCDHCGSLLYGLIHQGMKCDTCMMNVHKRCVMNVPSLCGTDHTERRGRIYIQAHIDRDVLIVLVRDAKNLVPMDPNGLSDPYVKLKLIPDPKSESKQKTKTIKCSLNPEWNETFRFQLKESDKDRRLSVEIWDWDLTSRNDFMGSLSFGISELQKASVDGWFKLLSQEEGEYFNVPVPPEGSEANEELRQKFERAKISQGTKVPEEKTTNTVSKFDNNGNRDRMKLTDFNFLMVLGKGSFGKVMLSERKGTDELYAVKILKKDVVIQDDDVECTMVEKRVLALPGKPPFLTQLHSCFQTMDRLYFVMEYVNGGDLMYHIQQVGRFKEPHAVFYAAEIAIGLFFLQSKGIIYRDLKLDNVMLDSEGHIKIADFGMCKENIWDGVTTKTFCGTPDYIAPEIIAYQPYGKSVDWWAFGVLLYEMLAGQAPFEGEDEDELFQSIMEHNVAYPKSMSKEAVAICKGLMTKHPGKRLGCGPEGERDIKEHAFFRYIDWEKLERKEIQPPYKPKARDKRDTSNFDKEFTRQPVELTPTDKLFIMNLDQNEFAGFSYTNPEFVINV
Description: Inhibition of human full length PKC beta2 expressed in baculovirus assessed as substrate phosphorylation using fluorescence-labelled peptides as substrate at 0.1 uM after 90 mins by microfluidic peptide phosphorylation assay
In experiment [3] the target is T1, Serine/threonine-protein kinase BRSK1 (Homo sapiens) (UniProt Q8TDC3).
T1 sequence (whole entry): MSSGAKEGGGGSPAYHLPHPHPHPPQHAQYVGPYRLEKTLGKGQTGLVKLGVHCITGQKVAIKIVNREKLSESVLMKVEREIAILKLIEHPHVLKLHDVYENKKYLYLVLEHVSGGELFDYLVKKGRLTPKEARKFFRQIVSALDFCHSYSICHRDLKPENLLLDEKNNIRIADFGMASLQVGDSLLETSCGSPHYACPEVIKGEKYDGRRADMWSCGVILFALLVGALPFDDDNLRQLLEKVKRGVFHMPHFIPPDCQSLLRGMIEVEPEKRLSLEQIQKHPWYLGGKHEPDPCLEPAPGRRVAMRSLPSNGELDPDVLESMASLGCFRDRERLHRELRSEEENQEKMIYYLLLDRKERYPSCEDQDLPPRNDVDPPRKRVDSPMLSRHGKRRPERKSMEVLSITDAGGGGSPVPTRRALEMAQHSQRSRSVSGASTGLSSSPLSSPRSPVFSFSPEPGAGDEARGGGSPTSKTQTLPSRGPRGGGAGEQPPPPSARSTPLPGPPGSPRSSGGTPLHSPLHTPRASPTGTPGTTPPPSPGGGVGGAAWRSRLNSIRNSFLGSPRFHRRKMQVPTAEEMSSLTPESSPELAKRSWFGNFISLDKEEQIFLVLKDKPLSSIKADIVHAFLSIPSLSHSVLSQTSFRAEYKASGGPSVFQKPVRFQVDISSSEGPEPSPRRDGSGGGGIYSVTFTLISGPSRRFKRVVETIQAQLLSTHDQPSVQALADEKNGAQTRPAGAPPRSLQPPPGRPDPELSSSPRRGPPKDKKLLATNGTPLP
Nature of the experiment: Inhibition of human full length BRSK1 expressed in baculovirus assessed as substrate phosphorylation using fluorescence-labelled peptides as substrate at 0.06 uM after 90 mins by microfluidic peptide phosphorylation assay.

For experiment [4], the target named is Vascular endothelial growth factor receptor 2 (Homo sapiens) (UniProt P35968). The experiment in a line: Inhibition of human KDR cytoplasmic domain expressed in baculovirus assessed as substrate phosphorylation using fluorescence-labelled peptides as substrate at 0.2 uM after 90 mins by microfluidic peptide phosphorylation assay.
Experiment [5] addresses T2, Serine/threonine-protein kinase Sgk2 (Homo sapiens) (UniProt Q9HBY8).
T2 sequence (whole entry): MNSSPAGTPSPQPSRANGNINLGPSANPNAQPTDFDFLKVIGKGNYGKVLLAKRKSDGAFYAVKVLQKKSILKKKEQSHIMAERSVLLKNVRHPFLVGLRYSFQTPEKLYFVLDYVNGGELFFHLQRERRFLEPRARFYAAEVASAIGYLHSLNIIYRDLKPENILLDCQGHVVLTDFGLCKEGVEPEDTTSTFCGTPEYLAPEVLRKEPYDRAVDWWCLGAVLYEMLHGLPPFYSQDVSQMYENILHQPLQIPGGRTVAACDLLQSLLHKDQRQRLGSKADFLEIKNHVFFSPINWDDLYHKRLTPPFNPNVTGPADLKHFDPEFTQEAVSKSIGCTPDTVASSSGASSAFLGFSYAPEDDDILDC
The experiment in a line: Inhibition of human full length SGK2 expressed in baculovirus assessed as substrate phosphorylation using fluorescence-labelled peptides as substrate at 0.2 uM after 90 mins by microfluidic peptide phosphorylation assay.

Experiment [6] concerns the target Ribosomal protein S6 kinase alpha-5 (Homo sapiens) (UniProt O75582). The experiment in a line: Inhibition of human full length MSK1 expressed in baculovirus assessed as substrate phosphorylation using fluorescence-labelled peptides as substrate at 0.2 uM after 90 mins by microfluidic peptide phosphorylation assay.
The target in experiment [7] is Hepatocyte growth factor receptor (Homo sapiens) (UniProt P08581). Nature of the experiment: Inhibition of human MET cytoplasmic domain expressed in baculovirus assessed as substrate phosphorylation using fluorescence-labelled peptides as substrate at 9 uM after 90 mins by microfluidic peptide phosphorylation assay.
Hepatocyte growth factor receptor (Homo sapiens), sequence (P08581 whole entry, the tested form may be a part): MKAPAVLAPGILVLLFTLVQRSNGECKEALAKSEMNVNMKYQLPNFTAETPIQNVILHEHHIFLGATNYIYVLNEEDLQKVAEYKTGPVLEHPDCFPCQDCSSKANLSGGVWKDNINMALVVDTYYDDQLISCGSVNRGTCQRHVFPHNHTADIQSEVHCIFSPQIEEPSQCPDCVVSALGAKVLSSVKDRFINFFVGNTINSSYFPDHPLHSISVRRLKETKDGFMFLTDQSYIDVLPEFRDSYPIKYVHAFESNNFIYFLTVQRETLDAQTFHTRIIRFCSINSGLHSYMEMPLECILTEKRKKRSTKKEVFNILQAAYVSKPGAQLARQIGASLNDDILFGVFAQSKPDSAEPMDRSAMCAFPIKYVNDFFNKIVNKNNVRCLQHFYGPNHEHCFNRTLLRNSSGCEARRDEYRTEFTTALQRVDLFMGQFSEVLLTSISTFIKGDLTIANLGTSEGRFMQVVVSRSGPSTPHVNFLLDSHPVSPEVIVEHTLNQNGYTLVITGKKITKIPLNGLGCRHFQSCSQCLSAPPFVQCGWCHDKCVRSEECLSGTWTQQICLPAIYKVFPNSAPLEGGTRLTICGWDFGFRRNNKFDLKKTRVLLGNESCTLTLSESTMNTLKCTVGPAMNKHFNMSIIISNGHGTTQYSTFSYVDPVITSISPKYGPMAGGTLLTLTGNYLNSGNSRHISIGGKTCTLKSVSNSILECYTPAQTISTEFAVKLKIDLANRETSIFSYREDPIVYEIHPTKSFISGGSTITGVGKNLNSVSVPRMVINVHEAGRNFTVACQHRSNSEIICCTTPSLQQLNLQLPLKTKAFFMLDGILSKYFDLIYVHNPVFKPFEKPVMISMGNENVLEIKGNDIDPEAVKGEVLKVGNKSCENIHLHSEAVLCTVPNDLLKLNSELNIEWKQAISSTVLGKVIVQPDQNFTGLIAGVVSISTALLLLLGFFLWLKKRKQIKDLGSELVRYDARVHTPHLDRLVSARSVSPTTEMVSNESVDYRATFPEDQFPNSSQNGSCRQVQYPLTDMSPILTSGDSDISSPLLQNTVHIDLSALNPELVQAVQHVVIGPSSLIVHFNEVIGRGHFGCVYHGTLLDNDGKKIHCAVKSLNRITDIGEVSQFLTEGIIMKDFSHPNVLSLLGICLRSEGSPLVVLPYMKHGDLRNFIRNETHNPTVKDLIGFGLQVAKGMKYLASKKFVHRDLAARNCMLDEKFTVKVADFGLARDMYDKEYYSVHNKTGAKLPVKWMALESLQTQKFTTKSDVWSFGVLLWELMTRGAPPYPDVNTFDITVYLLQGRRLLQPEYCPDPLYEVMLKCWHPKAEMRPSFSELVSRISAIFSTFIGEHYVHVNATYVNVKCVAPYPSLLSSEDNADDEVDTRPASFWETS
The target of experiment [8] is T3, Interleukin-1 receptor-associated kinase 4 (Homo sapiens) (UniProt Q9NWZ3).
T3 sequence (whole entry): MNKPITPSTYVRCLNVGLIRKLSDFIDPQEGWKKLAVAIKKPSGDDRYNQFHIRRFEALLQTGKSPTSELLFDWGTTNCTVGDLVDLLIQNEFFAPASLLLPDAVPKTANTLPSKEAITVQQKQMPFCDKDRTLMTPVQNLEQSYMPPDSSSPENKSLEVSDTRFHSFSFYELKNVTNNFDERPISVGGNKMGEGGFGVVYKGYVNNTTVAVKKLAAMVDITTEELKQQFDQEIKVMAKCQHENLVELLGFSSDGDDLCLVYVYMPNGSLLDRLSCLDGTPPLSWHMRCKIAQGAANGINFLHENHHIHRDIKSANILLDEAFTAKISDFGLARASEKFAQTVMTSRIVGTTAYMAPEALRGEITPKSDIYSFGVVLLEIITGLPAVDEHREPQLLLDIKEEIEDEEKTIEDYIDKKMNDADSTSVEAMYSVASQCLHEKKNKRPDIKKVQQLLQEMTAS
Nature of the experiment: Inhibition of human IRAK4 catalytic domain expressed in baculovirus assessed as substrate phosphorylation using fluorescence-labelled peptides as substrate at 70 uM after 90 mins by microfluidic peptide phosphorylation assay.

Experiment [9] deals with Tyrosine-protein kinase ABL2 (Homo sapiens) (UniProt P42684). The experiment in a line: Inhibition of human truncated Arg expressed in baculovirus assessed as substrate phosphorylation using fluorescence-labelled peptides as substrate at 70 uM after 90 mins by microfluidic peptide phosphorylation assay.
Experiment [10] addresses Calcium/calmodulin-dependent protein kinase type II subunit gamma (Homo sapiens) (UniProt Q13555). Nature of the experiment: Inhibition of human CAMK2 gamma catalytic domain expressed in baculovirus assessed as substrate phosphorylation using fluorescence-labelled peptides as substrate at 70 uM after 90 mins by microfluidic peptide phosphorylation assay.
The target in experiment [11] is T4, Testis-specific serine/threonine-protein kinase 1 (Homo sapiens) (UniProt Q9BXA7).
T4 sequence (whole entry): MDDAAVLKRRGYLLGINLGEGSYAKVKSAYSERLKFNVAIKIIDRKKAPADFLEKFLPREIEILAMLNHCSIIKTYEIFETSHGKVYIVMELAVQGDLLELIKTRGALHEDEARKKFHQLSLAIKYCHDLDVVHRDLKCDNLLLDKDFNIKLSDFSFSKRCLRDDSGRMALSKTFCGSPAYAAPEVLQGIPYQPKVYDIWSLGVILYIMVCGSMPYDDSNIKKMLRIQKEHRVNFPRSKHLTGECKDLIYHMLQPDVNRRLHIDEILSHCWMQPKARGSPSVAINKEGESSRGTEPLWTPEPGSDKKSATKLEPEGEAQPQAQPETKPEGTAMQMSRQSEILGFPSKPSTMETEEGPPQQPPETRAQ
The experiment in a line: Inhibition of human full length TSSK1 expressed in baculovirus assessed as substrate phosphorylation using fluorescence-labelled peptides as substrate at 2 uM after 90 mins by microfluidic peptide phosphorylation assay.

Tyrosine-protein kinase Lyn (Homo sapiens), sequence (P07948 2-512 limits assumed): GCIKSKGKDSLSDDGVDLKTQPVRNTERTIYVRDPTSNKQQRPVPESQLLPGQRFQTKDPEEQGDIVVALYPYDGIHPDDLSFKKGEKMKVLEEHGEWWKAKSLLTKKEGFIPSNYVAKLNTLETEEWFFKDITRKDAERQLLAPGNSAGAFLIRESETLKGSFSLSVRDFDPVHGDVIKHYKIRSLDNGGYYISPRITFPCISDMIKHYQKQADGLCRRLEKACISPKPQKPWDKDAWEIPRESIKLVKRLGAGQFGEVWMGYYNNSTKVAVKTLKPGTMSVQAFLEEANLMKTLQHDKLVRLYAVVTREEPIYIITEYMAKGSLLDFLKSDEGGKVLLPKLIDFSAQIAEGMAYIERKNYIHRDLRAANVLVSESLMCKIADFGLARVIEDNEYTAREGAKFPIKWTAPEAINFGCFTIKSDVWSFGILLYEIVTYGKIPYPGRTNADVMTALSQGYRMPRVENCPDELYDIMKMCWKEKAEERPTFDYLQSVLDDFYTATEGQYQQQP
Calcium/calmodulin-dependent protein kinase type II subunit gamma (Homo sapiens), sequence (Q13555 whole entry, the tested form may be a part): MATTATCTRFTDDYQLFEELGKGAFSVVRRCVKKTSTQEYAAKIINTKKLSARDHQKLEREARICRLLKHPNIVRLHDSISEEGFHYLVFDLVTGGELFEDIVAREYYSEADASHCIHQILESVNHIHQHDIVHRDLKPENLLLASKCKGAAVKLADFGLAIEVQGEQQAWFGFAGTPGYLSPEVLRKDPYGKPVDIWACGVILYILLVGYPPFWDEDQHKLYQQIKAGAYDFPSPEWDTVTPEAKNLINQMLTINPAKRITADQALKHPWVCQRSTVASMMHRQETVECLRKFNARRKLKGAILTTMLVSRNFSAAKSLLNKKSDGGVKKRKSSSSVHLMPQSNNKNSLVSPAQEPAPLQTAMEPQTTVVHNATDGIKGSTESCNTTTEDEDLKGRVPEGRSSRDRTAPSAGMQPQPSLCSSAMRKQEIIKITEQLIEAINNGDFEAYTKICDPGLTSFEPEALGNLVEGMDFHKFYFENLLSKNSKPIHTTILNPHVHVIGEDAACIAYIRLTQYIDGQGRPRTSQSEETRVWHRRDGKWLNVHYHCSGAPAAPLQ
Ribosomal protein S6 kinase alpha-5 (Homo sapiens), sequence (O75582 whole entry, looked up, the tested form may be a part): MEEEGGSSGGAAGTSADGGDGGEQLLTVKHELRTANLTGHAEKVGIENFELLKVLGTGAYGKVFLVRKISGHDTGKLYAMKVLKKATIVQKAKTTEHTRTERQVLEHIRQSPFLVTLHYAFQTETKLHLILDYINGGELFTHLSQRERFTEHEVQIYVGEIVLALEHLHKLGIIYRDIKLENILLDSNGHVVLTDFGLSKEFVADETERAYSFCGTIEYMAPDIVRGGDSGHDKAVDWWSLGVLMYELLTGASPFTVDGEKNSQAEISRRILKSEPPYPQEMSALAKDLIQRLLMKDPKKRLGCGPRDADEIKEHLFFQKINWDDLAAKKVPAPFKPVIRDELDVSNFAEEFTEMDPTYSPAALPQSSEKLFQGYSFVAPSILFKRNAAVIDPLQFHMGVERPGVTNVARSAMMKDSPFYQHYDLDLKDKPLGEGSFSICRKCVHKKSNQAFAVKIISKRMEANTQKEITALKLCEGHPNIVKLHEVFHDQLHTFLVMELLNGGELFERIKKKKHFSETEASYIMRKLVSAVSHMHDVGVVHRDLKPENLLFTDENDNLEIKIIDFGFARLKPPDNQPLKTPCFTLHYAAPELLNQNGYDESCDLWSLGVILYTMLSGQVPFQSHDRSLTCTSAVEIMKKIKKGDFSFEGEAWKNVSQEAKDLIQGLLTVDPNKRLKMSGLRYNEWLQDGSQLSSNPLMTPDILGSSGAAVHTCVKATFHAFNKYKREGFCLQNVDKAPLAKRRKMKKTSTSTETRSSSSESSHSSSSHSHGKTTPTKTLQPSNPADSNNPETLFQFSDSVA

Regarding `NCC1CCN(c2ncnc3[nH]ccc23)CC1`, the inhibition – broadly, the share of the control response that was lost under treatment – in experiment [1] turned out to be 51%.
In experiment [2], `C[C@H](CN(C)C)Oc1nc(Nc2cc3cccc(Cl)c3cn2)cnc1C#N` returned an inhibition of 0%.
For the molecule `NC1(Cc2ccc(Cl)cc2)CCN(c2ncnc3[nH]ccc23)CC1`, the inhibition in experiment [3] was 0%.
Consider `Clc1ccc(C2(c3ccc(-c4ncnc5[nH]cnc45)cc3)CCNCC2)cc1`, for which the figures for the inhibition in experiment [4], in experiment [5] and in experiment [6] were 9%, 23.5% and 90%, respectively.
With `NCC1CN(c2ncnc3[nH]c4cnccc4c23)CCO1` (stereo unspecified), in [7], the inhibition came out at 0%.
Turning to `CNCc1ccc(-c2ncnc3[nH]cnc23)cc1`, the inhibition came to 15% in [8], 33% in experiment [9] and 16% in experiment [10].
On to `NC1CCN(c2ncnc3[nH]ccc23)CC1`, for which the inhibition in [11] worked out at 0%.
